The test system of assay [1] is SN12C-VHLshRNA-HIF-2α mutant xenograft tumors. Briefly: Subcutaneous xenograft tumor growth, VHL knockdown cells with HIF-2α mutant. In kind it is in vivo, SCID mice. The note with it: 0.1 mg/kg CCI-779 daily. How it is done: FIGS. 4A-4C. Rescue of CCI-779 growth suppression by HIF-1-α and HIF-2-α prolyl hydcroxylase mutants. SN12C-CSCG-VHLshRNA cells stably infected with the prolyl hydroxylation defective cDNA mutants p-Babe-puro-HA-HIF-1α (P564A), HIF-2α (P405A; P531A) or backbone vector were treated with CCI-779 or vehicle and harvested 24 hours later. (a) Lysates were subjected to immunoblotting for HIF-1α, HIF-2α, GLUT-1, CA-IX, p-eIF4G, p-S6 and β-Actin as loading control. (b) SN12C-VHLshRNA, SN12C-VHLshRNA-HIF-1α mutant, SN12C-VHLshRNA-HIF-2α mutant cells (1×10^5) were cultured in 10% serum rich media, in the presence of vehicle, 1 or 10 nM of CCI-779 for 5 days. Cell growth was measured by cell counts (n=3). […]
(§1) For in vitro experiments, cells (5×10^4) were plated and treated with 1 and 10 nM CCI-779 (kind gift of J. Gibbons, Wyeth) or vehicle (ethanol). On day 5-post treatment, cells were trypsinized, resuspended in DMEM with 10% FBS and counted using the VI CELL counter (Beckman Coulter), according to the manufacturer's instructions. […] In vivo tumorigenicity was measured by injection of 5×10^5 SN12C-CSCG, ACHN-CSCG, SN12C-CSCG-VHLshRNAi, ACHN-CSCG-VHLshRNAi, SN12C-CSCG-VHLshRNAi-pBABE, SN12C-CSCG-VHLshRNAi-pBABE-HA-HIF-2α (P405A; P531A) cells in 100 μl of Matrigel (Collaborative Biomedical) subcutaneously into the flanks of SCID mice. […]

The test system of the next assay is ACHN-CSCG cells. Briefly: In vitro growth (cell counts), parental empty-vector cells. In kind it is cell-based, human. The note with it: 10 nM CCI-779, day 5. How it is done: (§2) FIGS. 1A-1E. Effects of VHL knockdown on sensitivity to CCI-779. (a) Immunoblotting of lysates derived from shRNA and control (empty vector, V) in SN12C, using antibodies against VHL (both isoforms detected), HIF-1α, HIF-2α, GLUT-1, CA-IX and β-Actin (as a loading control). (b) SN12C-CSCG and SN12C-VHLshRNA cells (1×10^5) were cultured in 10% serum rich media, in the presence of vehicle, 1 or 10 nM of CCI-779 for 5 days. Cell growth was measured by cell counts (n=3). […] (c) SN12C-CSCG (C1) and SN12C-CSCG shVHL RNA (C2) cells were injected into SCID mice at a dose of 1×10^6 cells per mouse (n=30). […] Phosphorylated-S6 protein in SN12C-CSCG and SN12C-VHL shRNA xenograft tumors treated with vehicle or 0.1 mg/kg of CCI-779 was measured by immunoblot C3 and C4). […]
as §1

The next assay deals with SN12C-CSCG cells. Described as above. In kind it is cell-based, human. To be noted: 1 and 10 nM CCI-779, day 5, 10% serum; b106 at 10 nM. The method, then:
as §2, §1

Entries after “also recorded” stand apart in the source; their conditions may differ.

Turning to `CO[C@H]1C[C@@H]2CC[C@@H](C)[C@@](O)(O2)C(=O)C(=O)N2CCCC[C@H]2C(=O)O[C@H]([C@H](C)C[C@@H]2CC[C@@H](OC(=O)C(C)(CO)CO)[C@H](OC)C2)CC(=O)[C@H](C)/C=C(\C)[C@@H](O)[C@@H](OC)C(=O)[C@H](C)C[C@H](C)/C=C/C=C/C=C/1C` [CCI-779], the “growth inhibitory effect of CCI-779 in HIF mutant xenografts” value in assay [1] was “completely rescued; also recorded: reversal of both the in vitro and in vivo sensitivity”. Also, the cell growth entry is on record as “not affected” with ACHN-CSCG cells and “not affected; also recorded: not sensitive” with SN12C-CSCG cells.
